Data published in patent publication US11111237B2, “Bicyclic compound and use thereof” (SK BIOPHARMACEUTICALS CO., LTD., priority 2019, dated 2021).

Target: PRMT5-MEP50 enzyme complex (Homo sapiens (Human), UniProt O14744)
Experiment: PRMT5 enzyme activity in vitro assay (methylation of histone H4R3, ELISA absorbance at 450 nm)
Type: biochemical
Conditions: SAM, histone H4 peptide, room temperature 2 hours, 8 points from 10 μM to 0.128 nM
Protocol: Method for Measuring Enzyme Activity
In vitro assay: PRMT5-MEP50 enzyme complex, cofactor S-adenosylmethionine (SAM) and histone H4 peptide were reacted in vitro, and methylation of arginine (H4R3)—which is the third amino acid of histone H4—was measured in order to measure the enzyme activity of PRMT5.
Reagents: PRMT5-MEP50 enzyme complex (Catalog No. 51045), blocking buffer (52100-B), histone methyltransferase reaction buffer 2 (4×HMT assay buffer 2, Catalog No. 52170), and primary antibody (primary antibody 4-3, Catalog No. 52150) were purchased from BPS Bioscience (USA). The histone H4 peptide (1-20 amino acids) was custom made by Komabiotech (Korea) and used. S-adenosylmethionine was purchased from NEB (New England Biolabs, USA, Catalog No. B9003S). Plates for coating histone H4 peptide, washing buffer and color development reagent were purchased from the following vendors: Plate (Immobilizer™-Amino Plate, NUNC, Denmark, Catalog No. 436023), carbonate-bicarbonate buffer (Sigma-Aldrich, USA, Catalog No. C3041), washing buffer (10×TBST, Biosesang, Korea, Catalog No. T2005), TMB ELISA substrate (Abcam, UK, Catalog No. ab210902), horseradish peroxidase (HRP)-conjugated antibody (Abcam, UK, Catalog No. ab6721).
Experimental procedure: The histone H4 peptide was diluted with carbonate-bicarbonate buffer and prepared to 100 μg/mL, and then dispensed onto the plate per 100 μL and reacted at 37° C. for 1 hour. PRMT5-MEP50 enzyme complex and S-adenosylmethionine were diluted with histone methyltransferase reaction buffer to prepare 5 μg/mL and 2 μM, respectively, and then 20 μL of PRMT5-MEP50 enzyme complex and 25 μL of S-adenosylmethionine were dispensed onto the plate prepared above. 5 μL of the compound diluted with 10% dimethyl sulfoxide solution was added thereto and reacted at room temperature for 2 hours (final volume=50 μL). The concentration of the compound was diluted 1:5 from 10 μM until the lowest concentration of 0.128 nM, and 8 points were used for the test. After preparing the primary antibody by diluting 1:2000 with blocking buffer, 100 μL was added to the plate and reacted at room temperature for 1 hour. After preparing horseradish peroxidase-conjugated antibody by diluting 1:10,000 with blocking buffer, 100 μL was added to the plate and reacted at room temperature for 1 hour. 100 μL of TMB substrate was added and reacted for 3 minutes at room temperature, and 100 μL of 1 N sulfuric acid was then added to terminate the reaction. Then, the absorbance at 450 nm was measured to calculate the IC50 value of the compound. (+++: 1 to 100 nM, ++: greater than 100 to 1,000 nM, +: greater than 1,000 to 10,000 nM)

Chain of PRMT5-MEP50 enzyme complex (O14744 2-637): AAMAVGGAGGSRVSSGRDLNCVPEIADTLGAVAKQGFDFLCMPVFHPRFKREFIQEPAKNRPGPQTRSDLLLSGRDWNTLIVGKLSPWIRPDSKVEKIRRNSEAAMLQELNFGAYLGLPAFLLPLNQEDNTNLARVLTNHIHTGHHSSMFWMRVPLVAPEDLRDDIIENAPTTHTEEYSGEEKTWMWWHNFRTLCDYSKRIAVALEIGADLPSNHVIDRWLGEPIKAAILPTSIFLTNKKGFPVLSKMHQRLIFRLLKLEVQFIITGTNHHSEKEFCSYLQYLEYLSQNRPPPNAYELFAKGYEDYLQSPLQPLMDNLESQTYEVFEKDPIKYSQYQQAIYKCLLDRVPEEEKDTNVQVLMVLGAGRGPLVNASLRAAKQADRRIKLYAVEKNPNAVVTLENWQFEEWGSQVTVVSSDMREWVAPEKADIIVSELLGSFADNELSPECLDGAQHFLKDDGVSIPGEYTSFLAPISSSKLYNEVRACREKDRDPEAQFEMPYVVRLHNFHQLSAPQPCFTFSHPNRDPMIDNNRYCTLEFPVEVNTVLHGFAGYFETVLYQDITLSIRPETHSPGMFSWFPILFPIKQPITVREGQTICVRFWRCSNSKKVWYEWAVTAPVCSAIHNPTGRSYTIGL
Chain of PRMT5-MEP50 enzyme complex (Q9BQA1 2-342 partner): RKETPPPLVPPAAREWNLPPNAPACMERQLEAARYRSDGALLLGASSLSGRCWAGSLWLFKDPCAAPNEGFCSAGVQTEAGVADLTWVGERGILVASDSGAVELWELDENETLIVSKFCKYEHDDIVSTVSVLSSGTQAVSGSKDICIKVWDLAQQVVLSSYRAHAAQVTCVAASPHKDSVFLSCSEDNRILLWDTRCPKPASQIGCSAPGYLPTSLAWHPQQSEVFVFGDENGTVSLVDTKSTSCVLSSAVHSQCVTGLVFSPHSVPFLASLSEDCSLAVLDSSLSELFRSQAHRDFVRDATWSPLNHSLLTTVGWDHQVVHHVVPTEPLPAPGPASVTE

SMILES	IC50
CN1CCCC(Oc2ccc3c(c2)N(C)CCN(C[C@H](O)CN2CCc4ccccc4C2)C3=O)C1 (stereo partly drawn) [Example 130, 4-[(2R)-3-(3,4-dihydro-1H-isoquinolin-2-yl)-2-hydroxy-propyl]-1-methyl-8-[(1-methyl-3-piperidyl)oxy]-2,3-dihydro-1,4-benzodiazepin-5-one]	100 to 1000 nM
CCN1CC(Oc2ccc3c(c2)OCCN(C[C@H](O)CN2CCc4ccccc4C2)C3=O)C1 [Example 94, 4-[(2R)-3-(3,4-dihydro-1H-isoquinolin-2-yl)-2-hydroxy-propyl]-8-(1-ethylazetidin-3-yl)oxy-2,3-dihydro-1,4-benzoxazepin-5-one]	100 to 1000 nM
CN1CCN(C[C@H](O)CN2CCc3ccccc3C2)C(=O)c2ccc(C3=CCN(C(=O)OC(C)(C)C)CC3)cc21 [Example 120, tert-butyl 4-[4-[(2R)-3-(3,4-dihydro-1H-isoquinolin-2-yl)-2-hydroxy-propyl]-1-methyl-5-oxo-2,3-dihydro-1,4-benzodiazepin-8-yl]-3,6-dihydro-2H-pyridine-1-carboxylate]	1 to 100 nM
O=C1c2ccc(OC(F)(F)F)cc2CCCN1CC(O)CN1CCc2ccccc2C1 (centres unmarked) [Example 4, 2-[3-(3,4-dihydro-1H-isoquinolin-2-yl)-2-hydroxy-propyl]-7-(trifluoromethoxy)-4,5-dihydro-3H-2-benzazepin-1-one]	100 to 1000 nM
CC(C)N1CCC[C@H]1COc1ccc2c(c1)OCCN(C[C@H](O)CN1CCc3ccccc3C1)C2=O [Example 101, 4-[(2R)-3-(3,4-dihydro-1H-isoquinolin-2-yl)-2-hydroxy-propyl]-8-[[(2S)-1-isopropylpyrrolidin-2-yl]methoxy]-2,3-dihydro-1,4-benzoxazepin-5-one]	100 to 1000 nM
CN1CCN(Cc2ccc3c(c2)OCCN(C[C@H](O)CN2CCc4ccccc4C2)C3=O)CC1 [Example 54, 4-[(2R)-3-(3,4-dihydro-1H-isoquinolin-2-yl)-2-hydroxy-propyl]-8-[(4-methylpiperazin-1-yl)methyl]-2,3-dihydro-1,4-benzoxazepin-5-one]	1 to 100 nM
CC1(C)CN(C[C@H](O)CN2CCc3ccccc3C2)C(=O)c2ccc(OC3CCN(CCO)CC3(F)F)nc2O1 (stereo partly drawn) [Example 256, 8-[[3,3-difluoro-1-(2-hydroxyethyl)-4-piperidyl]oxy]-4-[(2R)-3-(3,4-dihydro-1H-isoquinolin-2-yl)-2-hydroxy-propyl]-2,2-dimethyl-3H-pyrido[3,2-f][1,4]oxazepin-5-one]	100 to 1000 nM
CN1CCCC(Oc2ccc3c(c2)OCCN(C[C@H](O)CN2CCc4ccccc4C2)C3=O)C1 (stereo partly drawn) [Example 68, 4-[(2R)-3-(3,4-dihydro-1H-isoquinolin-2-yl)-2-hydroxy-propyl]-8-[(1-methyl-3-piperidyl)oxy]-2,3-dihydro-1,4-benzoxazepin-5-one]	100 to 1000 nM
CC(C)(C)OC(=O)N1CC=C(c2ccc3c(c2)OCCN(C[C@H](O)CN2CCc4ccccc4C2)C3=O)CC1 [Example 14, Tert-butyl 4-[4-[(2R)-3-(3,4-dihydro-1H-isoquinolin-2-yl)-2-hydroxy-propyl]-5-oxo-2,3-dihydro-1,4-benzoxazepin-8-yl]-3,6-dihydro-2H-pyridine-1-carboxylate]	100 to 1000 nM
CCN1CCN(C[C@H](O)CN2CCc3ccccc3C2)C(=O)c2ccc(Br)cc21 [Example 157, 8-bromo-4-[(2R)-3-(3,4-dihydro-1H-isoquinolin-2-yl)-2-hydroxy-propyl]-1-ethyl-2,3-dihydro-1,4-benzodiazepin-5-one]	1 to 100 nM
O=C1c2ccc(C3=CCOCC3)cc2OCCN1C[C@H](O)CN1CCc2ccccc2C1 [Example 20, 4-[(2R)-3-(3,4-dihydro-1H-isoquinolin-2-yl)-2-hydroxy-propyl]-8-(3,6-dihydro-2H-pyran-4-yl)-2,3-dihydro-1,4-benzoxazepin-5-one]	100 to 1000 nM
CC1(C)CN(C[C@H](O)CN2CCc3ccccc3C2)C(=O)c2ccc(OC3CCN(C=O)CC3)cc2O1 [Example 181, 4-[[4-[(2R)-3-(3,4-dihydro-1H-isoquinolin-2-yl)-2-hydroxy-propyl]-2,2-dimethyl-5-oxo-3H-1,4-benzoxazepin-8-yl]oxy]piperidine-1-carbaldehyde]	100 to 1000 nM
COCCN1CCC(Oc2ccc3c(c2)OCCN(C[C@H](O)CN2CCc4ccccc4C2)C3=O)CC1 [Example 243]	1 to 100 nM
O=C1c2ccc(OC3CC4CCC(C3)N4CCF)cc2OCCN1C[C@H](O)CN1CCc2ccccc2C1 (some centres unmarked) [Example 215]	100 to 1000 nM
CC1COCCN1C(=O)c1ccc2c(c1)OCCN(C[C@H](O)CN1CCc3ccccc3C1)C2=O (stereo partly drawn) [Example 191, 4-[(2R)-3-(3,4-dihydro-1H-isoquinolin-2-yl)-2-hydroxy-propyl]-8-(3-methylmorpholin-4-carbonyl)-2,3-dihydro-1,4-benzoxazepin-5-one]	100 to 1000 nM
CC(=O)N1CCN(Cc2ccc3c(c2)OCCN(C[C@H](O)CN2CCc4ccccc4C2)C3=O)CC1 [Example 53, 8-[(4-acetylpiperazin-1-yl)methyl]-4-[(2R)-3-(3,4-dihydro-1H-isoquinolin-2-yl)-2-hydroxy-propyl]-2,3-dihydro-1,4-benzoxazepin-5-one]	100 to 1000 nM
C[C@H]1CN(C[C@H](O)CN2CCc3ccccc3C2)C(=O)c2ccc(OC3CN(CCF)C3)cc2O1 [Example 201, (2S)-4-[(2R)-3-(3,4-dihydro-1H-isoquinolin-2-yl)-2-hydroxy-propyl]-8-[1-(2-fluoroethyl)azetidin-3-yl]oxy-2-methyl-2,3-dihydro-1,4-benzoxazepin-5-one]	100 to 1000 nM
O=C1c2ccccc2OCCN1C[C@H](O)CN1CCc2ccccc2C1 [Example 149, 4-[(2R)-3-(3,4-dihydro-1H-isoquinolin-2-yl)-2-hydroxy-propyl]-2,3-dihydro-1,4-benzoxazepin-5-one]	100 to 1000 nM
CN1CCC(COc2ccc3c(c2)OCCN(C[C@H](O)CN2CCc4ccccc4C2)C3=O)C1 (stereo partly drawn) [Example 106, 4-[(2R)-3-(3,4-dihydro-1H-isoquinolin-2-yl)-2-hydroxy-propyl]-8-[(1-methylpyrrolidin-3-yl)methoxy]-2,3-dihydro-1,4-benzoxazepin-5-one]	100 to 1000 nM
CC(=O)N1CCC(COc2ccc3c(c2)OCCN(C[C@H](O)CN2CCc4ccccc4C2)C3=O)CC1 [Example 70, 8-[(1-acetyl-4-piperidyl)methoxy]-4-[(2R)-3-(3,4-dihydro-1H-isoquinolin-2-yl)-2-hydroxy-propyl]-2,3-dihydro-1,4-benzoxazepin-5-one]	100 to 1000 nM
CC1(C)CN(C[C@H](O)CN2CCc3ccccc3C2)C(=O)c2ccc(OC3CN(C=O)C3)cc2O1 [Example 168, 3-[[4-[(2R)-3-(3,4-dihydro-1H-isoquinolin-2-yl)-2-hydroxy-propyl]-2,2-dimethyl-5-oxo-3H-1,4-benzoxazepin-8-yl]oxy]azetidin-1-carbaldehyde]	1 to 100 nM
CN1CCC(Oc2ccc3c(n2)OC(C)(C)CN(C[C@H](O)CN2CCc4ccccc4C2)C3=O)CC1 [Example 145, 4-[(2R)-3-(3,4-dihydro-1H-isoquinolin-2-yl)-2-hydroxypropyl]-2,2-dimethyl-8-[(1-methyl-4-piperidyl)oxy]-3H-pyrido[3,2-f][1,4]oxazepin-5-one]	100 to 1000 nM
O=C1c2ccc(OC3CN(C4COC4)C3)cc2OCCN1C[C@H](O)CN1CCc2ccccc2C1 [Example 96, 4-[(2R)-3-(3,4-dihydro-1H-isoquinolin-2-yl)-2-hydroxy-propyl]-8-[1-(oxetan-3-ylyl)azetidin-3-yl]oxy-2,3-dihydro-1,4-benzoxazepin-5-one]	100 to 1000 nM
CC(c1ccc2c(c1)OCCN(C[C@H](O)CN1CCc3ccccc3C1)C2=O)N1CC2(COC2)C1 (stereo partly drawn) [Example 222, 4-[(2R)-3-(3,4-dihydro-1H-isoquinolin-2-yl)-2-hydroxy-propyl]-8-[1-(2-oxa-6-azaspiro[3.3]heptan-6-yl)ethyl]-2,3-dihydro-1,4-benzoxazepin-5-one]	100 to 1000 nM
O=C1c2ccc(CN3CCCC(CO)C3)cc2OCCN1C[C@H](O)CN1CCc2ccccc2C1 (stereo partly drawn) [Example 37, 4-[(2R)-3-(3,4-dihydro-1H-isoquinolin-2-yl)-2-hydroxy-propyl]-8-[[3-(hydroxymethyl)-1-piperidyl]methyl]-2,3-dihydro-1,4-benzoxazepin-5-one]	1000 to 10000 nM
CCN1CC2(CC(Oc3ccc4c(c3)OCCN(C[C@H](O)CN3CCc5ccccc5C3)C4=O)C2)C1 [Example 172, 4-[(2R)-3-(3,4-dihydro-1H-isoquinolin-2-yl)-2-hydroxy-propyl]-8-[(2-ethyl-2-azaspiro[3.3]heptan-6-yl)oxy]-2,3-dihydro-1,4-benzoxazepin-5-one]	100 to 1000 nM
